These results are taken from patent US20180303901A1, “Notch1 Decoy Antagonists Protect From Obesity-Induced Insulin Resistance and Fatty Liver” (The Trustees of Columbia University in the City of New York, priority 2013, published 2018).

In series [1] the test system is FAO hepatoma cells. Briefly: Western blots / gene expression in FAO hepatoma cells transduced with Fc or N1-IC. The following applies: MG132 for 4-h. In kind it is cell-based. An excerpt:
FIG. 8A-FIG. 8F: Activation of hepatic Notch increases mTor, lipogenic genes, and steatosis in chow-fed mice. *p<0.05, **p<0.01, ***p<0.001 vs. Fc or GFP. Protein expression normalized to either Actin or Tubulin. Mice were 8-week-old C57Bl/6 males, unless otherwise indicated. […] FIG. 8D: Liver Western blots in mice transduced with GFP or N1-IC adenovirus, sacrificed after a 16-h fast followed by 2-h refeeding. (n=6/group). FIG. 8E: Gene expression analysis in mice transduced with GFP or N1-IC adenovirus, sacrificed after a 16-h fast followed by 2-h refeeding. (n=6/group). FIG. 8F: De novo lipogenesis in hepatocytes after transduction with GFP or N1-IC adenovirus and incubation with 10 nM insulin (triplicate wells, representative of 2 individual experiments). FIG. 8G: Hepatic triglyceride content 7-d after GFP or N1-IC transduction in 16-h fasted, 24-week-old, chow-fed Cre- and L-Rbpj mice. […] FIG. 8K-FIG. 8M: Quantitation of the phospho/total mTor, 4E-BP1 and S6k levels from the experiments in FIG. 8J. […]
(§1) Notch1-IC, Notch decoy (1-24), Fc and GFP adenoviruses have been described (Kitamura 2007; Funahashi 2011; Nakae 2003). We transduced primary hepatocytes or HEK 293 ceils at MOI 5 and FAO hepatoma cells at MOI 200, to achieve 90-100% infection efficiency as assessed by GFP expression. […]
On the technique in general: A western blot detects proteins with antibodies after separation by electrophoresis.

The subject of series [2] is primary hepatocytes. Nature of the series: Western blots of primary hepatocytes transfected with Raptor cDNA, transduced with Fc or Notch1, cycloheximide. The series is classed as cell-based, mouse. The conditions noted are these: cycloheximide for 2-h. As to the method: FIG. 11A-FIG. 11H: Notch induces mTorc1 complex stability. FIG. 11A: Western blots of liver proteins from 5h-fasted L-Rbpj and control mice (mTor and Actin blots reproduced from FIG. 2n), FIG. 11B: Western blot of liver protein from chow-fed, 12-week-old mice transduced with Fc or N1-IC, sacrificed at day 7, after overnight fasting. FIG. 11C: Western blots from FAO hepatoma cells transduced with either Fc or N1-IC, with or without treatment with MG132 for 4-h. FIG. 11D: Western blots of primary hepatocytes, transfected with Raptor cDNA, then transduced with Fc or Notch1 and treated for 2-h with cycloheximide. […]
We isolated and cultured primary mouse hepatocytes as described (Pajvani 2011). […] We measured fatty acid oxidation as described (Li 2011), with the following modifications: primary hepatocytes were incubated serum-free medium with 1.5% fatty-acid free BSA (Sigma) containing 0.1 mM cold oleic acid and 1 μCi 14C-oleic acid (PerkinElmer Life Sciences) for 4 h. […] Trapped 14CO2 on the alkalinized filter paper was measured as described (Li 2011). We measured lipogenesis as described (Yecies 2011), with the following modifications: hepatocytes were stimulated with 10 nM insulin in serum-free DMEM for 2 h, then labeled with 14C-acetate (PerkinElmer Life Sciences) for 2 h. […]

The test system of series [3] is N1-IC-transduced mice. Nature of the series: Rapamycin treatment of Fc or N1-IC-transduced mice. The following applies: data not shown. In kind it is in vivo, mouse. As to the method: FIG. 9A-FIG. 9F: mTor inhibition prevents Notch-induced fatty liver. Data shown means±SEM. FIG. 9A: Fasn-luciferase in FAO hepatoma cells transfected with either Raptor or scrambled (scr) shRNA, transduced with either Fc (−) or N1-IC (Notch) adenovirus and treated for 16-h with 100 nM insulin. ***p<0.001 vs. Fc control, &p<0.001 vs. scrambled shRNA, #p<0.001 vs. no insulin. […]
Blood glucose was measured by glucose meter (OneTouch) and plasma insulin by ELISA (Millipore). […] Hepatic de novo lipogenesis was determined by measuring the amount of newly synthesized FA, as resolved by TLC, present in the liver 1 h after intraperitoneal injection of 1 mCi of 3H2O (Zhang 2006). Triglyceride secretion rate was measured after injection of Poloxamer 407, with serial measurement of plasma triglycerides (Li 2011).
as §1

Entries after “also recorded” stand apart in the source; their conditions may differ. Peptide text beside a SMILES is read from it. * marks the point of attachment. Cbz = O=C(OCc1ccccc1)*

As to `CC(C)C[C@@H](C=O)NC(=O)[C@H](CC(C)C)NC(=O)[C@H](CC(C)C)NC(=O)OCc1ccccc1` [MG132] (Cbz-Leu-Leu-Leu-aldehyde), the “effect of N1-IC on Raptor protein under proteosomal inhibition” value in series [1] is listed as “independent”.

Consider `C[C@@H]1C[C@@H]([C@H](O)CC2CC(=O)NC(=O)C2)C(=O)[C@@H](C)C1` [cycloheximide], for which, in series [2], the “effect of N1-IC on Raptor protein under protein synthesis inhibition” value is reported as “fully reversed; also recorded: prevents”.

Consider `CO[C@H]1C[C@@H]2CC[C@@H](C)[C@@](O)(O2)C(=O)C(=O)N2CCCC[C@H]2C(=O)O[C@H]([C@H](C)C[C@@H]2CC[C@@H](O)[C@H](OC)C2)CC(=O)[C@H](C)/C=C(\C)[C@@H](O)[C@@H](OC)C(=O)[C@H](C)C[C@H](C)/C=C/C=C/C=C/1C` [rapamycin], for which, in series [3], the “effect of rapamycin on glucose tolerance” value was “mild glucose intolerance”.
